From patent US11174232B2, “Substituted heterocyclyl derivatives as CDK inhibitors” (Aurigene Discovery Technologies Limited, priority 2015, dated 2021) come the findings set out here.

pIC50: −log10 of the molar value.

In general, inhibition refers to the change of the read-out against control, counted positive when it falls. Low values mean a response near the control, high ones a response far below the control. The term pIC50 denotes the negative decadic logarithm of the IC50, by convention in mol/L. Higher therefore signals a low IC50.

In the assay the target is CDK7/CycH/MNAT1 (Homo sapiens (Human), UniProt P50613). Nature of the assay: Biochemical Assay for CDK7 (TR-FRET kinase assay). The conditions noted are these: 60 min pre-incubation with kinase, 1 mM ATP; for inhibition at 10 µM: 10 μM compound. Here is the method: Biochemical Assay for CDK7:
The ability of compounds to inhibit CDK7 kinase activity was tested in a TR-FRET assay using 5 nM of CDK7/CycH/MNAT1 obtained from Invitrogen, USA. Test compounds were pre-incubated with the kinase at room temperature for 60 min. After the incubation, substrate mix [100 nM Ultra-light MBP (Perkin Elmer, USA) and 1 mM ATP (Sigma)] was added. The above reaction was stopped by the addition of 40 mM EDTA after 60 minutes of kinase reaction. 1 nM Eu-labelled antiphospho-MBP antibody [Perkin Elmer, USA] was added, mixed well and the fluorescence emission at 615 nm and 665 nm [excitation at 340 nm] was measured. The final DMSO concentration in the assay was 1%. For IC50 determination, appropriate concentrations were made by ⅓^rd serial dilutions of 10 mM DMSO stock solution of test compound. All the fluorescence measurements were made in a Victor 3 Multilabel Counter [Perkin Elmer, USA]. The IC50 was determined by fitting the dose response data to sigmoidal curve fitting equation using GraphPad Prism software V5. To identify compounds that inhibit CDK7 irreversibly, time depended inhibition studies were carried by pre-incubating compound with the enzyme at three time points (20, 60 and 180 min) and carrying out assay as described above.
The compounds were screened by the above mentioned assay procedure.
On the technique in general: In TR-FRET formats the signal depends on donor and acceptor labels being close together.

CDK7/CycH/MNAT1, sequence (P50613 whole entry): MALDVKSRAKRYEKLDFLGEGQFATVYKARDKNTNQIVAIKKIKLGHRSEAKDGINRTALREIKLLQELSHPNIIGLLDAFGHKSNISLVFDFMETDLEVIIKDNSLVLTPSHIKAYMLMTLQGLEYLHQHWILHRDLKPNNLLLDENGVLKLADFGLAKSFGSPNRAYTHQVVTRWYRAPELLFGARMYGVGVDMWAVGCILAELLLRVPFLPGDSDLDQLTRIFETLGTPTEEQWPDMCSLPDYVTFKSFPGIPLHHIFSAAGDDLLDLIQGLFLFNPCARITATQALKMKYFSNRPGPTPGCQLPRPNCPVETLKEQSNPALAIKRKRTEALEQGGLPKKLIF
CDK7/CycH/MNAT1, sequence (P51946 whole entry partner): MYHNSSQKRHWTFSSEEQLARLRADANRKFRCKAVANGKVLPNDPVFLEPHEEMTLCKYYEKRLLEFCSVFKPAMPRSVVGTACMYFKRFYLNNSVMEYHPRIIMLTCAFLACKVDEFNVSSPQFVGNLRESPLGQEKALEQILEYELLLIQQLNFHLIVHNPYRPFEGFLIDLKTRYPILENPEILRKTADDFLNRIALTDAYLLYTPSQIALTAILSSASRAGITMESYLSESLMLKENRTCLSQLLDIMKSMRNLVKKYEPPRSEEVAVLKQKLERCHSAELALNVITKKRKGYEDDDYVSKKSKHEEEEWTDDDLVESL
CDK7/CycH/MNAT1, sequence (P51948 whole entry partner): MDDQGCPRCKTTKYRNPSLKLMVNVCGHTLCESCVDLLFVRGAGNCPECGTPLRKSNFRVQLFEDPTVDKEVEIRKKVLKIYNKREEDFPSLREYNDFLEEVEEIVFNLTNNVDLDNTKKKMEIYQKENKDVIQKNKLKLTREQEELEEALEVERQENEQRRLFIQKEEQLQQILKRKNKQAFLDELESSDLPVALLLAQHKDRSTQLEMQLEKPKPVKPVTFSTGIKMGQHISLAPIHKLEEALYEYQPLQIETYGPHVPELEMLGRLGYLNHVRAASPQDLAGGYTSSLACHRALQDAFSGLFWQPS

On to `CC(C(=O)Nc1cc(C2CC2)[nH]n1)c1cccc(-c2ccc(NC(=O)/C=C/CN3CCCC3)c(F)c2)c1` (stereo not drawn) [Compound 33, (E)-N-(3′-(1-((5-cyclopropyl-1H-pyrazol-3-yl)amino)-1-oxopropan-2-yl)-3-fluoro-[1,1′-biphenyl]-4-yl)-4-(pyrrolidin-1-yl)but-2-enamide], for which the inhibition at 10 µM was determined as 97% and the pIC50 is 7.00 to 7.60.

Turning to `CC(C(=O)Nc1cc(C2CC2)[nH]n1)c1cccc(-c2ccc(NC(=O)/C=C/CN3CCOCC3)c(F)c2)c1` (stereo not drawn) [Compound 34, (E)-N-(3′-(1-((5-cyclopropyl-1H-pyrazol-3-yl)amino)-1-oxopropan-2-yl)-3-fluoro-[1,1′-biphenyl]-4-yl)-4-morpholinobut-2-enamide], at 10 µM the inhibition was 88% and the pIC50 was < 7.00.

`CC(C(=O)Nc1cc(C2CC2)[nH]n1)c1cccc(-c2ccc(NC(=O)/C=C/CN3CCOCC3)cn2)c1` (stereo not drawn) [Compound 35, (E)-N-(6-(3-(1-((5-cyclopropyl-1H-pyrazol-3-yl)amino)-1-oxopropan-2-yl)phenyl)pyridin-3-yl)-4-morpholinobut-2-enamide]: 10 µM produced 86% inhibition and the pIC50 was < 7.00.

Consider `CC(C)C(C(=O)Nc1cc(C2CC2)[nH]n1)c1cccc(-c2ccc(NC(=O)/C=C/CN(C)C)cn2)c1` (stereo not drawn) [Compound 36, (E)-N-(6-(3-(1-((5-cyclopropyl-1H-pyrazol-3-yl)amino)-3-methyl-1-oxobutan-2-yl)phenyl)pyridin-3-yl)-4-(dimethylamino)but-2-enamide], for which the inhibition at 10 µM worked out at 98% and the pIC50 was > 7.60.

For `CC(C(=O)Nc1cc(C2CC2)[nH]n1)c1cccc(-c2ccc(NC/C=C/C(=O)N(C)C)cn2)c1` (stereo not drawn) [Compound 37, (E)-4-((6-(3-(1-((5-cyclopropyl-1H-pyrazol-3-yl)amino)-1-oxopropan-2-yl)phenyl)pyridin-3-yl)amino)-N,N-dimethylbut-2-enamide], the inhibition at 10 µM worked out at 67% and the pIC50 is < 7.00.

On to `CC(C(=O)Nc1cc(C2CC2)[nH]n1)c1cccc(-c2ccc(NC(=O)/C=C/CN(C)C)c(F)n2)c1` (stereo not drawn) [Compound 38, (E)-N-(6-(3-(1-((5-cyclopropyl-1H-pyrazol-3-yl)amino)-1-oxopropan-2-yl)phenyl)-2-fluoropyridin-3-yl)-4-(dimethylamino)but-2-enamide], for which testing at 10 µM gave an inhibition of 94% and the pIC50 is < 7.00.

With `CC(C(=O)Nc1cc(C2CC2)[nH]n1)c1cccc(-c2ccc(NC(=O)/C=C/CN3CCCCC3)cn2)c1` (stereo not drawn) [Compound 39, (E)-N-(6-(3-(1-((5-cyclopropyl-1H-pyrazol-3-yl)amino)-1-oxopropan-2-yl)phenyl)pyridin-3-yl)-4-(piperidin-1-yl)but-2-enamide], the inhibition at 10 µM turned out to be 84% and the pIC50 is < 7.00.

`CC(C(=O)Nc1cc(C2CC2)[nH]n1)c1cccc(-c2ccc(NC(=O)/C=C/CN3CCCCC3)nc2)c1` (stereo not drawn) [Compound 40, (E)-N-(5-(3-(1-((5-cyclopropyl-1H-pyrazol-3-yl)amino)-1-oxopropan-2-yl)phenyl)pyridin-2-yl)-4-(piperidin-1-yl)but-2-enamide]: 10 µM produced 100% inhibition and the pIC50 was > 7.60.

With `COC/C=C/C(=O)Nc1ccc(-c2cccc(C(C)C(=O)Nc3cc(C4CC4)[nH]n3)c2)cn1` (stereo not drawn) [Compound 41, (E)-N-(5-(3-(1-((5-cyclopropyl-1H-pyrazol-3-yl)amino)-1-oxopropan-2-yl)phenyl)pyridin-2-yl)-4-methoxybut-2-enamide], 10 µM produced 90% inhibition and the pIC50 was < 7.00.

Take `CC(C(=O)Nc1cc(C2CC2)[nH]n1)c1cccc(-c2ccc(NC(=O)/C=C/CN(C)C)nc2)c1` (stereo not drawn) [Compound 42, (E)-N-(5-(3-(1-((5-cyclopropyl-1H-pyrazol-3-yl)amino)-1-oxopropan-2-yl)phenyl)pyridin-2-yl)-4-(dimethylamino)but-2-enamide]: the inhibition at 10 µM was 98% and the negative logarithm of the IC50 (pIC50) is > 7.60.

For `CC(C)C(C(=O)Nc1cc(C2CC2)[nH]n1)c1cccc(-c2ccc(NC(=O)/C=C/CN(C)C)c(F)c2)c1` (stereo not drawn) [Compound 43, (E)-N-(3′-(1-((5-cyclopropyl-1H-pyrazol-3-yl)amino)-3-methyl-1-oxobutan-2-yl)-3-fluoro-[1,1′-biphenyl]-4-yl)-4-(dimethylamino)but-2-enamide], 10 µM produced 99% inhibition and the pIC50 was > 7.60.

`CC(C)C(C(=O)Nc1cc(C2CC2)[nH]n1)c1cccc(-c2ccc(NC(=O)/C=C/CN3CCOCC3)nc2)c1` (stereo not drawn) [Compound 44, (E)-N-(5-(3-(1-((5-cyclopropyl-1H-pyrazol-3-yl)amino)-3-methyl-1-oxobutan-2-yl)phenyl)pyridin-2-yl)-4-morpholinobut-2-enamide]: 10 µM produced 99% inhibition and the pIC50 is > 7.60.

For `CC(C(=O)Nc1cc(C2CC2)[nH]n1)c1cccc(-c2ccc(NC(=O)/C=C/CN3CCC(F)C3)nc2)c1` (stereo not drawn) [Compound 45, (E)-N-(5-(3-(1-((5-cyclopropyl-1H-pyrazol-3-yl)amino)-1-oxopropan-2-yl)phenyl)pyridin-2-yl)-4-(3-fluoropyrrolidin-1-yl)but-2-enamide], at 10 µM the inhibition was 89% and the pIC50 was > 7.60.

For the molecule `CC(C(=O)Nc1cc(C2CC2)[nH]n1)c1cccc(-c2ccc(NC(=O)/C=C/CN3CC[C@H](F)C3)nc2)c1` (stereo partly drawn) [Compound 46, (E)-N-(5-(3-(1-((5-cyclopropyl-1H-pyrazol-3-yl)amino)-1-oxopropan-2-yl)phenyl)pyridin-2-yl)-4-((S)-3-fluoropyrrolidin-1-yl)but-2-enamide], 10 µM produced 95% inhibition and the pIC50 is > 7.60.

For `CC(C(=O)Nc1cc(C2CC2)[nH]n1)c1cccc(-c2ccc(NC(=O)/C=C/CN3CC[C@@H](F)C3)nc2)c1` (stereo partly drawn) [Compound 49, (E)-N-(5-(3-(1-((5-cyclopropyl-1H-pyrazol-3-yl)amino)-1-oxopropan-2-yl)phenyl)pyridin-2-yl)-4-((R)-3-fluoropyrrolidin-1-yl)but-2-enamide], 10 µM produced 89% inhibition and the pIC50 is > 7.60.

Regarding `CC(C(=O)Nc1cc(C2CC2)[nH]n1)c1cccc(-c2ccc(NC(=O)/C=C/CN3CCCC3)nc2)c1` (stereo not drawn) [Compound 52, (E)-N-(5-(3-(1-((5-cyclopropyl-1H-pyrazol-3-yl)amino)-1-oxopropan-2-yl)phenyl)pyridin-2-yl)-4-(pyrrolidin-1-yl)but-2-enamide], 10 µM produced 91% inhibition and the pIC50 is > 7.60.

Take `CCN(CC)C/C=C/C(=O)Nc1ccc(-c2cccc(C(C)C(=O)Nc3cc(C4CC4)[nH]n3)c2)cn1` (stereo not drawn) [Compound 55, (E)-N-(5-(3-(1-((5-cyclopropyl-1H-pyrazol-3-yl)amino)-1-oxopropan-2-yl)phenyl)pyridin-2-yl)-4-(diethylamino)but-2-enamide]: the inhibition at 10 µM was found to be 95% and the pIC50 was > 7.60.

Regarding `CC(C)C(C(=O)Nc1cc(C2CC2)[nH]n1)c1cccc(-c2ccc(NC(=O)/C=C/CN(C)C)nc2)c1` (stereo not drawn) [Compound 56, (E)-N-(5-(3-(1-((5-cyclopropyl-1H-pyrazol-3-yl)amino)-3-methyl-1-oxobutan-2-yl)phenyl)pyridin-2-yl)-4-(dimethylamino)but-2-enamide], at 10 µM the inhibition was 96% and the pIC50 is > 7.60.
